{"source": "paper PMC7659582", "about": "(Cell Reports Medicine, 2020)", "key": {"hERG": {"target": "hERG (Homo sapiens, UniProt Q12809)", "sequence (Q12809 whole entry)": "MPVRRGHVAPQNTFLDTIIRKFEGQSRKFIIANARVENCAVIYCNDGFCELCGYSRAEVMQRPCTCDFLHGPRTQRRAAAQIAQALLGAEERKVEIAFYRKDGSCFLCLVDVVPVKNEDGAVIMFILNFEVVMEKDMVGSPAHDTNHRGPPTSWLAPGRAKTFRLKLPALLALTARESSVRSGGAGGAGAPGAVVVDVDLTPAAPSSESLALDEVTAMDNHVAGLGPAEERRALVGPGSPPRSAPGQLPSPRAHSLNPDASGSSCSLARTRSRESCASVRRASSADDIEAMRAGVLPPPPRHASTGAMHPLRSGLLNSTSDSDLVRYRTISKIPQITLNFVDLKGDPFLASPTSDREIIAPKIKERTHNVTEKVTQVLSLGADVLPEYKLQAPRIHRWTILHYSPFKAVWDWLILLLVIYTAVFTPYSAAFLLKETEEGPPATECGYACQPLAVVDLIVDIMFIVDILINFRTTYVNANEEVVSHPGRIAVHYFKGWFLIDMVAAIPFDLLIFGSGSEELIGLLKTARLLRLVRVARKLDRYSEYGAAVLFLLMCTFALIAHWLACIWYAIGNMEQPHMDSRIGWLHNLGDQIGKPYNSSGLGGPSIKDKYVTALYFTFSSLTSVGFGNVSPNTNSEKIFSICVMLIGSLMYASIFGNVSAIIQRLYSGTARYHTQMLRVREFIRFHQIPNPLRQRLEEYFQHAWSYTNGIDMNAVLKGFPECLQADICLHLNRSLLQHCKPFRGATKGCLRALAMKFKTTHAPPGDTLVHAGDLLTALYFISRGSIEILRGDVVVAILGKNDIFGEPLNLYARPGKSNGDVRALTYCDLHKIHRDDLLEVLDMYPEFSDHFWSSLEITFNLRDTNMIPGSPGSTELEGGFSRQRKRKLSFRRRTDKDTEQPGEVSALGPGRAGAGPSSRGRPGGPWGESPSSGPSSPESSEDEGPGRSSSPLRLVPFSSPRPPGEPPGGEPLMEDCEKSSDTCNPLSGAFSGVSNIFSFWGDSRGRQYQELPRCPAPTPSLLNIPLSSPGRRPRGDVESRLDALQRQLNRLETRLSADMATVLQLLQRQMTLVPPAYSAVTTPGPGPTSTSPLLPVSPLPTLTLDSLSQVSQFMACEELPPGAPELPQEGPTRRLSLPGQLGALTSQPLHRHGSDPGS"}, "[1]": {"settings": "Table 1; cited from earlier work"}, "[2]": {"test": "FAERS disproportionality analysis", "settings": "for EB05 TdP: torsades de pointes; for EB05 VT: ventricular tachycardia"}, "[3]": {"settings": "Table 1; as of last access May 22, 2018; cited from earlier work"}, "[4]": {"test": "Incidence of cardiac dysrhythmia in Truven Health MarketScan claims data", "format": "in vivo, human"}, "[5]": {"settings": "FAERS Nov 1997 to March 31, 2015, EB05 > 2 = signal"}}}
{"smiles": "CN1CCN(CCCCN2C(=O)CN(/N=C/c3ccc(-c4ccc(Cl)cc4)o3)C2=O)CC1", "note": "[AZIMILIDE]", "values": [{"measurement": "hERG IC50/Free Cmax Ratio", "setting": "hERG", "value": 11.50}, {"measurement": "CiPA Classification", "setting": "[1]", "value": "high"}, {"measurement": "EB05 TdP", "setting": "[2]; [5]", "value": 94.351}, {"measurement": "EB05 VT", "setting": "[2]; [5]", "value": 1.381}]}
{"smiles": "CC[C@H]1OC(=O)[C@H](C)[C@@H](O[C@H]2C[C@@](C)(OC)[C@@H](O)[C@H](C)O2)[C@H](C)[C@@H](O[C@@H]2O[C@H](C)C[C@H](N(C)C)[C@H]2O)[C@](C)(OC)C[C@@H](C)C(=O)[C@H](C)[C@@H](O)[C@]1(C)O", "note": "[CLARITHROMYCIN]", "values": [{"measurement": "hERG IC50/Free Cmax Ratio", "setting": "hERG", "value": 77.41}, {"measurement": "CiPA Classification", "setting": "[1]", "value": "intermediate"}, {"measurement": "CredibleMeds Classification", "setting": "[3]", "value": "risk of TdP"}, {"measurement": "EB05 TdP", "setting": "[2]; [5]", "value": 7.69}, {"measurement": "EB05 VA", "setting": "[2]; FAERS Nov 1997 to March 31, 2015, ventricular arrhythmia, EB05 > 2 = signal", "value": 1.898}, {"measurement": "EB05 VT", "setting": "[2]; [5]", "value": 3.016}]}
{"smiles": "Cc1cccc(C)c1OCC(C)N", "note": "(centres unmarked) [MEXILETINE]", "values": [{"measurement": "CD incidence", "setting": "[4]; Table 2, cardiac dysrhythmia cases, MarketScan 2009-2014", "value": "1,250"}, {"measurement": "Incidence Rate per 1,000 Years", "setting": "[4]; Table 2, cardiac dysrhythmia, MarketScan 2009-2014", "value": "280.45 per 1,000 Years"}, {"measurement": "Delta from Background Rate", "setting": "[4]; in vivo", "value": 257.45}, {"measurement": "hERG IC50/Free Cmax Ratio", "setting": "hERG", "value": 130.11}, {"measurement": "CiPA Classification", "setting": "[1]", "value": "very low"}, {"measurement": "EB05", "setting": "[2]; Table 2, values correspond to EB05 TdP of Table 1", "value": 2.65}]}
{"smiles": "CCOC(=O)C1=C(C)NC(C)=C(C(=O)OC)C1c1cccc([N+](=O)[O-])c1", "note": "(centres unmarked) [NITRENDIPINE]", "values": [{"measurement": "hERG IC50/Free Cmax Ratio", "setting": "hERG", "value": 50345}, {"measurement": "CiPA Classification", "setting": "[1]", "value": "very low"}, {"measurement": "EB05 TdP", "setting": "[2]; [5]", "value": 0.618}, {"measurement": "EB05 VT", "setting": "[2]; [5]", "value": 0.228}]}
